From patent US20250161473A1, “EXATECAN DERIVATIVE-ANTIBODY CONJUGATE AND MEDICAL USE THEREOF” (Gan & Lee Pharmaceuticals Co., Ltd., priority 2022, published 2025)

Each compound was assayed on MDA-MB-468 cell line with high TROP-2 expression (assay: Inhibition test of Exatecan derivatives (payload) on in vitro proliferation of tumor cells). Conditions: Homo sapiens, 72 h; MDA-MB-468 cells, 3 days, CellTiter-Glo; read-out: IC50 of MDA-MB-468 cell proliferation inhibition in vitro.
Format: cell-based, human
Method: The cell line used in this experiment is the MDA-MB-468 cell line with high TROP-2 expression (Nanjing Cobioer Biosciences Co., Ltd., catalog number: CBP60387). Prepare cell suspension with fresh cell culture medium containing 10% FBS at a density of 3×10^3 cells/mL, add 90 μL per well into an all-white 96-well cell culture plate (Beyotime, item number: FCP968-80pcs), 5% carbon dioxide 37° C. for 24 h. Compounds 1-36 were formulated with DMSO to 1 mM, respectively. Add 20 μL of different samples to be tested in the first column of the 96-well U-bottom dispensing plate, and the sample concentration is 1000 uM; add 20 μL DMSO to each well of the second to tenth columns. Take 5 μL of the sample from the first column to 20 μL DMSO in the second column, mix well, take 5 μL to the third column, and so on to the ninth column. Take 5 μL of the medicine from each well of the dispensing plate to 95 μL of DMEM medium, and mix well. Add 10 μL of prepared samples to be tested at different concentrations to the culture plate, and duplicate wells for each sample. 5% carbon dioxide and cultured at 37° C. for 3 days. Add 50 μL of CTG (CellTiter-Glo® Luminescent Cell Viability Assay, Promega, item number: G7573) to each well, mix on a shaker at room temperature for 30 minutes, incubate for 10 minutes, and read chemiluminescence on a microplate reader (TECAN, Spark). Graphpad Prism 8 software used for data analysis.

Structure (SMILES)	IC50
CC[C@@]1(O)C(=O)OCc2c1cc1n(c2=O)Cc2c-1nc1cc(F)c(C)c3c1c2[C@@H](NC(=O)Cc1cccc(N)c1)CC3 [Compound 23]	2.64 nM

Same assay, conditions: Homo sapiens, MDA-MB-468, 72 h, read-out: IC50 of MDA-MB-468 cell proliferation inhibition in vitro

Structure (SMILES)	IC50
CC[C@@]1(O)C(=O)OCc2c1cc1n(c2=O)Cc2c-1nc1cc(F)c(C)c3c1c2[C@@H](NC(=O)C1CNC1)CC3 [Compound 1]	135 nM
CC[C@@]1(O)C(=O)OCc2c1cc1n(c2=O)Cc2c-1nc1cc(F)c(C)c3c1c2[C@@H](NC(=O)Cc1ccc(N)cc1)CC3 [Compound 2]	3.38 nM
CC[C@@]1(O)C(=O)OCc2c1cc1n(c2=O)Cc2c-1nc1cc(F)c(C)c3c1c2[C@@H](NC(=O)Cc1ccc(NC(=O)CO)cc1)CC3 [Compound 3]	43.6 nM
CC[C@@]1(O)C(=O)OCc2c1cc1n(c2=O)Cc2c-1nc1cc(F)c(C)c3c1c2[C@@H](NC(=O)[C@@H]1CCCN1)CC3 [Compound 4]	4.32 nM
CC[C@@]1(O)C(=O)OCc2c1cc1n(c2=O)Cc2c-1nc1cc(F)c(C)c3c1c2[C@@H](NC(=O)[C@@H]1CCCN1C(=O)CO)CC3 [Compound 5]	19.3 nM
CC[C@@]1(O)C(=O)OCc2c1cc1n(c2=O)Cc2c-1nc1cc(F)c(C)c3c1c2[C@@H](NC(=O)c1ccc(O)c(Cl)c1)CC3 [Compound 6]	9.81 nM
CC[C@@]1(O)C(=O)OCc2c1cc1n(c2=O)Cc2c-1nc1cc(F)c(C)c3c1c2[C@@H](NC(=O)c1ccc(Cl)c(O)c1)CC3 [Compound 7]	9.45 nM
CC[C@@]1(O)C(=O)OCc2c1cc1n(c2=O)Cc2c-1nc1cc(F)c(C)c3c1c2[C@@H](NC(=O)NCC(F)(F)F)CC3 [Compound 8]	2.72 nM
CC[C@@]1(O)C(=O)OCc2c1cc1n(c2=O)Cc2c-1nc1cc(F)c(C)c3c1c2[C@@H](NC(=O)N[C@H]1CCCNC1)CC3 [Compound 12]	56.2 nM
CC[C@@]1(O)C(=O)OCc2c1cc1n(c2=O)Cc2c-1nc1cc(F)c(C)c3c1c2[C@@H](NC(=O)N[C@H]1CCNC1)CC3 [Compound 13]	76.5 nM
CC[C@@]1(O)C(=O)OCc2c1cc1n(c2=O)Cc2c-1nc1cc(F)c(C)c3c1c2[C@@H](NC(=O)N[C@@H]1CCNC1)CC3 [Compound 14]	48 nM
CC[C@@]1(O)C(=O)OCc2c1cc1n(c2=O)Cc2c-1nc1cc(F)c(C)c3c1c2[C@@H](NC(=O)Cc1ccc(N)cc1OC)CC3 [Compound 19]	7.52 nM
CC[C@@]1(O)C(=O)OCc2c1cc1n(c2=O)Cc2c-1nc1cc(F)c(C)c3c1c2[C@@H](NC(=O)Cc1ccc(N)cc1F)CC3 [Compound 21]	3.05 nM
CC[C@@]1(O)C(=O)OCc2c1cc1n(c2=O)Cc2c-1nc1cc(F)c(C)c3c1c2[C@@H](NC(=O)Cc1ccc(O)cc1)CC3 [Compound 22]	2.6 nM
CC[C@@]1(O)C(=O)OCc2c1cc1n(c2=O)Cc2c-1nc1cc(F)c(C)c3c1c2[C@@H](NC(=O)Cc1ccccc1N)CC3 [Compound 24]	1.65 nM
CC[C@@]1(O)C(=O)OCc2c1cc1n(c2=O)Cc2c-1nc1cc(F)c(C)c3c1c2[C@@H](NC(=O)CCc1ccc(N)cc1)CC3 [Compound 25]	8.63 nM
CC[C@@]1(O)C(=O)OCc2c1cc1n(c2=O)Cc2c-1nc1cc(F)c(C)c3c1c2[C@@H](NC(=O)CCCc1ccc(N)cc1)CC3 [Compound 26]	3.28 nM
CC[C@@]1(O)C(=O)OCc2c1cc1n(c2=O)Cc2c-1nc1cc(F)c(C)c3c1c2[C@@H](NC(=O)C1CCNCC1)CC3 [Compound 31]	136 nM

Same assay, conditions: MDA-MB-468 cells, 3 days, CellTiter-Glo; read-out: IC50 of MDA-MB-468 cell proliferation inhibition in vitro

Structure (SMILES)	IC50
CC[C@@]1(O)C(=O)OCc2c1cc1n(c2=O)Cc2c-1nc1cc(F)c(C)c3c1c2[C@@H](NC(=O)C1CCCN1)CC3 (some centres unmarked) [Compound 36]	6.34 nM
